Measured values reported in patent publication US12209079B2 (GENERAL INCORPORATED ASSOCIATION PHARMA VALLEY PROJECT …, priority 2017, dated 2025).
Where a name gives a salt, the structure may show the parent alone.

Columns and labels:
TDO in A172 cells = target: T1, TDO in A172 cells (Homo sapiens, UniProt P48775); experiment: TDO cell-based assay, kynurenine production in A172 cells; settings: A 172; final concentration of the compound 10 μM; rate relative to culture without compound
T1 construct: endogenous in cells; host or cells: A172 cells
In short: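 A172 cells were preincubated with compound for 1 h, then given L-tryptophan (final 524 μM) for 24 h at 37 °C. Kynurenine was read at 460 nm after p-dimethylbenzaldehyde/TCA reagent, background-subtracted, and expressed as % of no-compound production.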

IDO in A431 cells = target: T2, IDO in A431 cells (Homo sapiens, UniProt P14902); experiment: IDO cell-based assay, kynurenine production in IFN-γ stimulated A431 cells; settings: A-431, 24 h; final concentration of the compound 10 μM; rate relative to culture without compound
T2 construct: endogenous in cells; host or cells: A431 cells, IFN-γ stimulated
In short: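 A431 cells were cultured 24 h, then preincubated 1 h with compound in medium containing 178 μM L-tryptophan, and stimulated with IFN-γ (diluted to 100 ng/mL before addition) for 24 h. Kynurenine was measured by p-dimethylbenzaldehyde absorbance at 460 nm, background-subtracted, and expressed as % production versus no-compound control.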

[1] = target: rhIDO (recombinant human IDO) (Homo sapiens, UniProt P14902); experiment: Enzyme assay using rhIDO (rate of kynurenine production); type: biochemical; settings: 2 h; final concentration of the compound 10 μM; rate relative to reaction without compound; read-out: rhIDO-mediated kynurenine production
In short: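 rhIDO preincubated with compound 10 min at 37 °C in phosphate buffer with ascorbate, methylene blue and catalase; started with 2 mM tryptophan solution (stock) and run 120 min at 37 °C. Stopped with TCA and heated to convert N-formylkynurenine; kynurenine read at 490 nm after p-dimethylbenzaldehyde, background-subtracted, as % of no-compound control.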

[2] = target: rhTDO (recombinant human TDO) (Homo sapiens, UniProt P48775); experiment: Enzyme assay using rhTDO (rate of kynurenine production); type: biochemical; settings: 2 h; final concentration of the compound 10 μM; rate relative to reaction without compound; read-out: rhTDO-mediated kynurenine production
In short: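 Kynurenine output, as percent of untreated control after background subtraction, read at 490 nm with p-dimethylbenzaldehyde following TCA quench and 15 min heating at 50 °C. Reaction: rhTDO with compound, 10 min preincubation then 120 min at 37 °C, started by 20 mM tryptophan stock, in phosphate/ascorbate/methylene blue/catalase.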

T1 sequence (P48775 whole entry): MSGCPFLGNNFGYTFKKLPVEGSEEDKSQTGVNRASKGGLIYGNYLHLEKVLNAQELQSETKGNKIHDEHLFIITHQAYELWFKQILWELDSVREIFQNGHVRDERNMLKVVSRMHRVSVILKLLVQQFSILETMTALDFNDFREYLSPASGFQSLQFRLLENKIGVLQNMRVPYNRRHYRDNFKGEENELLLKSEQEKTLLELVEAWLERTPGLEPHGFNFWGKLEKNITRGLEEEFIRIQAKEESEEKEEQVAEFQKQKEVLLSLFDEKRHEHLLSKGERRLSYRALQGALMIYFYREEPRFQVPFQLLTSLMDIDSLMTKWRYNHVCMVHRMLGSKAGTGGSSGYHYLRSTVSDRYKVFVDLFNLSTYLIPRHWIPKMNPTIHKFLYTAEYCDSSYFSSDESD
Sequence of rhTDO (recombinant human TDO) (P48775 whole entry): as above
Sequence of rhIDO (recombinant human IDO) (P14902 whole entry): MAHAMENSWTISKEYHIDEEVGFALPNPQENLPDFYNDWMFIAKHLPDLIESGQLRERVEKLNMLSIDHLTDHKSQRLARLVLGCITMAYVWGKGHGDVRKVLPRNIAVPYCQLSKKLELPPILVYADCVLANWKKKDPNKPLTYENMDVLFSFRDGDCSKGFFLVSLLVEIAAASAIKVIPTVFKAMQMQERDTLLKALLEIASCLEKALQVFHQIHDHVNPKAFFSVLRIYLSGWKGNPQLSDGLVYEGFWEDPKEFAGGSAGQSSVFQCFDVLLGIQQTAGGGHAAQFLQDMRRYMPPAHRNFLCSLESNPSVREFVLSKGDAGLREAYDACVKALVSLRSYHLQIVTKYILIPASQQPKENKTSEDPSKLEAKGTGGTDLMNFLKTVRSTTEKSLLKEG
T2 sequence (P14902 whole entry): as above

Structure (SMILES)	remaining activity at 10 µM (TDO in A172 cells)	remaining activity at 10 µM (IDO in A431 cells)	remaining activity at 10 µM [1]	remaining activity at 10 µM [2]
FC(F)(F)c1ccc(CSC2=NCN(CCc3ccccc3Cl)CN2)c(CSC2=NCN(CCc3ccccc3Cl)CN2)c1 [Compound 48, 6,6′-(((4-(Trifluoromethyl)-1,2-phenylene)bis(methylene))bis(sulfanediyl))bis(3-(2-chlorophenethyl)-1,2,3,4-tetrahydro-1,3,5-triazine)]	71%	63%	80%	73%
COc1cccc(CNC(=O)c2ccc(Br)cc2CSC(=N)N)c1 [Compound 105, 5-Bromo-2-((3-methoxybenzyl)carbamoyl)benzyl carbamimidothioate hydrobromide]	42%	107%	98%	68%
N/C(=N\c1ccc(Br)cc1)SCc1cc(Cl)c(Cl)cc1CS/C(N)=N/c1ccc(Br)cc1 [Compound 135, (4,5-Dichloro-1,2-phenylene)bis(methylene) (E,E)-bis(N′-(4-bromophenyl)carbamimidothioate) dihydrobromide]	0%	12%	-2%	8%
N=C(N)SCc1ccccc1CC(=O)NCCc1ccc(Cl)cc1 [Compound 68, 2-(2-((4-Chlorophenethyl)amino)-2-oxoethyl)benzyl carbamimidothioate hydrobromide]	81%	101%	82%	31%
N=C(N)[Se]Cc1nc2ccccc2nc1C[Se]C(=N)N [Compound 112, Quinoxaline-2,3-diylbis(methylene) dicarbamimidoselenoate dihydrobromide]	5%	-2%	94%	90%
Clc1ccc(CN2CN=C(SCc3cc(Cl)c(Cl)cc3CSC3=NCN(Cc4ccc(Cl)c(Cl)c4)CN3)NC2)cc1Cl [Compound 56, 6,6′-(((4,5-Dichloro-1,2-phenylene)bis(methylene))bis(sulfanediyl))bis(3-(3,4-dichlorobenzyl)-1,2,3,4-tetrahydro-1,3,5-triazine)]	2%	4%	41%	35%
Fc1ccc(CN2CN=C(SCc3ccccc3CSC3=NCN(Cc4ccc(F)c(F)c4)CN3)NC2)cc1F [Compound 43, 1,2-Bis(((5-(3,4-difluorobenzyl)-1,4,5,6-tetrahydro-1,3,5-triazin-2-yl)thio)methyl)benzene]	-2%	11%	71%	41%
N/C(=N\c1ccc(F)c(Cl)c1)SCc1cc(Br)ccc1C(=O)NCc1ccc(F)cc1 [Compound 88, 5-Bromo-2-((4-fluorobenzyl)carbamoyl)benzyl (E)-N′-(3-chloro-4-fluorophenyl)carbamimidothioate hydrobromide]	28%	64%	82%	92%
N=C(N)SCc1cc(Cl)c(Cl)cc1CSC(=N)N [Compound 36, (4,5-dichloro-1,2-phenylene)bis(methylene) dicarbamimidothioate dihydrobromide]	-15%	1%	< 1%	< 3%
N=C(N)SCc1cc(Br)ccc1C(=O)NCc1ccc(Cl)cc1 [Compound 82, 5-Bromo-2-((4-chlorobenzyl)carbamoyl)benzyl carbamimidothioate hydrobromide]	37%	99%	89%	27%
N#Cc1ccc(CNC(=O)c2cc(Br)ccc2C[Se]C(=N)N)cc1 [Compound 110, 4-Bromo-2-((4-cyanobenzyl)carbamoyl)benzyl carbamimidoselenoate hydrobromide]	38%	13%	61%	59%
COc1ccc(CN2CN=C(SCc3ccccc3CSC3=NCN(Cc4ccc(OC)cc4)CN3)NC2)cc1 [Compound 26, 1,2-bis(((5-(4-methoxybenzyl)-1,4,5,6-tetrahydro-1,3,5-triazin-2-yl)thio)methyl)benzene]	-5%	5%	36%	44%
N/C(=N\c1ccc(F)cc1F)SCc1ccc(F)cc1CS/C(N)=N/c1ccc(F)cc1F [Compound 130, (4-Fluoro-1,2-phenylene)bis(methylene) (E,E)-bis(N′-(2,4-difluorophenyl)carbamimidothioate) dihydrobromide]	9%	1%	1%	8%
Clc1ccc(Cl)c(CN2CN=C(SCc3ccccc3CSC3=NCN(Cc4cc(Cl)ccc4Cl)CN3)NC2)c1 [Compound 18, 1,2-bis(((5-(2,5-dichlorobenzyl)-1,4,5,6-tetrahydro-1,3,5-triazin-2-yl)thio)methyl)benzene]	-1%	7%	23%	27%
N=C(N)SCc1cc(Br)ccc1C(=O)NCCc1ccc(Cl)cc1 [Compound 78, 5-Bromo-2-((4-chlorophenethyl)carbamoyl)benzyl carbamimidothioate hydrobromide]	56%	112%	74%	25%
N=C(N)SCc1cc(Br)ccc1C(=O)NCc1ccc(C(F)(F)F)cc1 [Compound 114, 5-Bromo-2-((4-(trifluoromethyl)benzyl)carbamoyl)benzyl carbamimidothioate hydrobromide]	37%	17%	98%	36%
N/C(=N\c1ccc(F)c(Cl)c1)SCc1ccc(F)cc1CS/C(N)=N/c1ccc(F)c(Cl)c1 [Compound 129, (4-Fluoro-1,2-phenylene)bis(methylene) (E,E)-bis(N′-(3-chloro-4-fluorophenyl)carbamimidothioate) dihydrobromide]	14%	7%	-2%	8%
COc1ccc(CCN2CN=C(SCc3ccc(Br)cc3CSC3=NCN(CCc4ccc(OC)cc4)CN3)NC2)cc1 [Compound 148, 6,6′-(((4-Bromo-1,2-phenylene)bis(methylene))bis(sulfanediyl))bis(3-(4-methoxyphenethyl)-1,2,3,4-tetrahydro-1,3,5-triazine)]	18%	7%	13%	8%
Brc1ccc(CSC2=NCN(CCC3CCCCC3)CN2)c(CSC2=NCN(CCC3CCCCC3)CN2)c1 [Compound 60, 6,6′-(((4-Bromo-1,2-phenylene)bis(methylene))bis(sulfanediyl))bis(3-(2-cyclohexylethyl)-1,2,3,4-tetrahydro-1,3,5-triazine)]	4%	1%	6%	6%
N#Cc1ccc(CNC(=O)c2ccc(Br)cc2CS/C(N)=N/c2ccc(Br)cc2)cc1 [Compound 87, 5-Bromo-2-((4-cyanobenzyl)carbamoyl)benzyl (E)-N′-(4-bromophenyl)carbamimidothioate hydrobromide]	13%	67%	75%	51%
N=C(N)SCc1ccccc1CC(=O)NCCc1ccccc1Cl [Compound 66, 2-(2-((2-chlorophenethyl)amino)-2-oxoethyl)benzyl carbamimidothioate hydrobromide]	74%	101%	80%	49%
N/C(=N\c1ccc(F)c(Cl)c1)SCc1cc(Br)ccc1C(=O)NCc1ccc(Cl)cc1 [Compound 83, 5-Bromo-2-((4-chlorobenzyl)carbamoyl)benzyl (E)-N′-(3-chloro-4-fluorophenyl)carbamimidothioate hydrobromide]	21%	75%	80%	59%
N=C(N)[Se]Cc1ccc(Cl)cc1C[Se]C(=N)N [Compound 109, (4-Chloro-1,2-phenylene)bis(methylene) dicarbamimidoselenoate dihydrobromide]	63%	19%	61%	57%
